Reference: ChEMBL document CHEMBL5120842, “Application of partially aromatic ortho-quionone-methides for the synthesis of novel naphthoxazines with improved antibacterial activity” (2022)
Converted amounts (≈) assume the structure as drawn.

Assays:
Assay type in all cases: functional
Staphylococcus aureus [1] = test: (§1) Antibacterial activity against Gram-positive methicillin-susceptible Staphylococcus aureus ATCC 25923 assessed as inhibition of efflux pump by measuring intracellular accumulation of ethidium bromide at 3.125 uM and measured every minute for 1 hr by fluorescence based microtiter plate reader analysis
Staphylococcus aureus [2] = test: as §1, with “methicillin and oxacillin-resistant” for “methicillin-susceptible”, “43300” for “25923”, “100” for “3.125”
Staphylococcus aureus [3] = test: Inhibition of efflux pump in Gram-positive methicillin-susceptible Staphylococcus aureus ATCC 25923 assessed as relative fluorescence index using ethidium bromide as substrate at 3.125 uM and measured after 1 hr by fluorescence based microtiter plate reader analysis
Escherichia coli [4] = test: Inhibition of efflux pump in Gram-negative Escherichia coli K-12 AG100 expressing AcrAB-TolC efflux pump assessed as relative fluorescence index using ethidium bromide as substrate at 100 uM and measured after 1 hr by fluorescence based microtiter plate reader analysis
Escherichia coli [5] = test: Antibacterial activity against Gram-negative Escherichia coli K-12 AG100 expressing AcrAB-TolC efflux pump assessed as inhibition of bacterial growth by CLSI protocol based assay
Staphylococcus aureus [6] = test: Antibacterial activity against Gram-positive methicillin-susceptible Staphylococcus aureus ATCC 25923 assessed as inhibition of bacterial growth by CLSI protocol based assay
Escherichia coli [7] = test: (§2) Antibacterial activity against Gram-negative Escherichia coli K-12 AG100 expressing AcrAB-TolC efflux pump assessed as inhibition of efflux pump by measuring intracellular accumulation of ethidium bromide at 100 uM and measured every minute for 1 hr by fluorescence based microtiter plate reader analysis
Staphylococcus aureus [8] = test: Antibacterial activity against Gram-positive methicillin and oxacillin-resistant Staphylococcus aureus ATCC 43300 assessed as inhibition of bacterial growth by CLSI protocol based assay
Escherichia coli [9] = test: as §2, with “at 50” for “at 100”
Staphylococcus aureus [10] = test: as §1, with “methicillin and oxacillin-resistant” for “methicillin-susceptible”, “43300” for “25923”, “50” for “3.125”
Escherichia coli [11] = test: Inhibition of efflux pump in Gram-negative Escherichia coli K-12 AG100 expressing AcrAB-TolC efflux pump assessed as relative fluorescence index using ethidium bromide as substrate at 50 uM and measured after 1 hr by fluorescence based microtiter plate reader analysis
Staphylococcus aureus [12] = test: Inhibition of efflux pump in Gram-positive methicillin and oxacillin-resistant Staphylococcus aureus ATCC 43300 assessed as relative fluorescence index using ethidium bromide as substrate at 50 uM and measured after 1 hr by fluorescence based microtiter plate reader analysis
Staphylococcus aureus [13] = test: Inhibition of efflux pump in Gram-positive methicillin and oxacillin-resistant Staphylococcus aureus ATCC 43300 assessed as relative fluorescence index using ethidium bromide as substrate at 100 uM and measured after 1 hr by fluorescence based microtiter plate reader analysis
Staphylococcus aureus [14] = test: Antibacterial activity against Gram-positive methicillin-susceptible Staphylococcus aureus ATCC 25923 assessed as inhibition of efflux pump by measuring intracellular accumulation of ethidium bromide at 50 uM and measured every minute for 1 hr by fluorescence based microtiter plate reader analysis
Staphylococcus aureus [15] = test: Inhibition of efflux pump in Gram-positive methicillin-susceptible Staphylococcus aureus ATCC 25923 assessed as relative fluorescence index using ethidium bromide as substrate at 50 uM and measured after 1 hr by fluorescence based microtiter plate reader analysis
Staphylococcus aureus [16] = test: Inhibition of efflux pump in Gram-positive methicillin-susceptible Staphylococcus aureus ATCC 25923 assessed as relative fluorescence index using ethidium bromide as substrate at 100 uM and measured after 1 hr by fluorescence based microtiter plate reader analysis
Staphylococcus aureus [17] = test: Antibacterial activity against Gram-positive methicillin-susceptible Staphylococcus aureus ATCC 25923 assessed as inhibition of efflux pump by measuring intracellular accumulation of ethidium bromide at 100 uM and measured every minute for 1 hr by fluorescence based microtiter plate reader analysis
Staphylococcus aureus [18] = test: Inhibition of efflux pump in Gram-positive methicillin-susceptible Staphylococcus aureus ATCC 25923 assessed as relative fluorescence index using ethidium bromide as substrate at 25 uM and measured after 1 hr by fluorescence based microtiter plate reader analysis
Staphylococcus aureus [19] = test: as §1, with “methicillin and oxacillin-resistant” for “methicillin-susceptible”, “43300” for “25923”, “25” for “3.125”
Staphylococcus aureus [20] = test: Inhibition of efflux pump in Gram-positive methicillin and oxacillin-resistant Staphylococcus aureus ATCC 43300 assessed as relative fluorescence index using ethidium bromide as substrate at 25 uM and measured after 1 hr by fluorescence based microtiter plate reader analysis
Staphylococcus aureus [21] = test: Antibacterial activity against Gram-positive methicillin-susceptible Staphylococcus aureus ATCC 25923 assessed as inhibition of efflux pump by measuring intracellular accumulation of ethidium bromide at 25 uM and measured every minute for 1 hr by fluorescence based microtiter plate reader analysis

Compound | Activity (Staphylococcus aureus [2]) | Activity (Escherichia coli [4]) | MIC (Escherichia coli [5]) [µM] | MIC (Staphylococcus aureus [6]) [µM] | Activity (Escherichia coli [7]) | MIC (Staphylococcus aureus [8]) [µM] | Activity (Escherichia coli [9]) | Activity (Staphylococcus aureus [10]) | Activity (Escherichia coli [11]) | Activity (Staphylococcus aureus [12]) | Activity (Staphylococcus aureus [13]) | Activity (Staphylococcus aureus [14]) | Activity (Staphylococcus aureus [15]) | Activity (Staphylococcus aureus [16]) | Activity (Staphylococcus aureus [17]) | other results
CCOC(=O)[C@H]1c2ccc3ccccc3c2O[C@@H]2c3[nH]c4ccccc4c3CCN21 (relative stereo) | 90479.33 | -0.06 | > 100 | 6.25 (≈ 2.49 µg/mL) | 32220.33 | > 100 | 33567.67 | 84683 | -0.02 | 0.09 | 0.16 |  |  |  |  | Activity (Staphylococcus aureus [1]): 34824.33; Activity (Staphylococcus aureus [3]): 0.26
CCOC(=O)[C@H]1c2ccc3ccccc3c2O[C@@H]2c3ccccc3CCN21 (relative stereo) | 114226 | 0.08 | > 100 | > 100 | 36999.33 | > 100 | 37156.33 | 111300.67 | 0.09 | 0.43 | 0.46 | 44414.33 | 0.61 | 0.55 | 42864 | 
CCOC(=O)[C@H]1c2c(ccc3ccccc23)O[C@@H]2c3[nH]c4ccccc4c3CCN21 (relative stereo) | 78009 | 0.06 | > 100 | > 100 | 36337.67 | > 100 | 34706 | 76072 | 0.01 | -0.03 | 0 | 27892.33 | 0.01 | 0.05 | 29131.67 | 
CCOC(=O)[C@H]1c2c(ccc3ccccc23)O[C@@H]2c3ccccc3CCN21 (relative stereo) | 93822.67 | 0.07 | > 100 | > 100 | 36732 | > 100 | 35837.67 | 92734 | 0.05 | 0.19 | 0.2 | 31759 | 0.15 | 0.13 | 31231.67 | 
CCOC(=O)C(c1ccc2ccccc2c1O)N1CCOCC1 (centres undefined) | 18886 | -0.81 | > 100 | > 100 | 6561.67 | > 100 | 7485.67 | 56126.33 | -0.78 | -0.28 | -0.76 | 11677.33 | -0.58 | -0.72 | 7624.33 | 
CCOC(=O)[C@H]1c2c(ccc3ccccc23)O[C@@H]2c3ccsc3CCN21 (relative stereo) | 88655.67 | 0.02 | > 100 | > 100 | 34921.33 | > 100 | 34078.33 | 88184.67 | 0 | 0.13 | 0.14 | 29306 | 0.06 | 0.22 | 33816.67 | 
CCOC(=O)C(c1c(O)ccc2ccccc12)N1CCOCC1 (centres undefined) | 84280 | 0.07 | > 100 | > 100 | 36685.33 | > 100 | 44310 | 87762.67 | 0.29 | 0.12 | 0.08 | 58168.67 | 1.1 | 0.87 | 51721 | 
COC(=O)[C@H]1[C@H]2C[C@@H]3c4[nH]c5cc(OC)ccc5c4CCN3C[C@H]2C[C@@H](OC(=O)c2cc(OC)c(OC)c(OC)c2)[C@@H]1OC [RESERPINE] |  |  |  |  |  |  |  |  |  |  |  |  |  |  |  | Activity (Staphylococcus aureus [18]): 0.96; Activity (Staphylococcus aureus [19]): 101532.7; Activity (Staphylococcus aureus [20]): 0.3; Activity (Staphylococcus aureus [21]): 54056
CCOC(=O)[C@H]1c2ccc3ccccc3c2O[C@@H]2c3ccsc3CCN21 (relative stereo) | 103410 | 0.05 | > 100 | > 100 | 35945.67 | > 100 | 34561.67 | 101450.33 | 0.01 | 0.3 | 0.33 | 36826.67 | 0.33 | 1.82 | 77859.67 | 
N#CC(C#N)=NNc1cccc(Cl)c1 [CARBONYL CYANIDE M-CHLOROPHENYLHYDRAZONE] |  |  |  |  |  |  | 72448.33 |  | 1.12 |  |  |  |  |  |  | 
